Calls of active or inactive are those of the source.
Columns and labels:
[1] = cells
[2] = cells; settings: A549
[3] = HepG2 cell cytotoxicity, dose response, cytotoxicity control, ATP luminescence, cherry-pick, set 6 (AID 1053125); assay type: functional, cell-based
[4] = cytotoxicity in COV434 cells, dose response, cytotoxicity control for PAX8 inhibitor project, cell-based, plate reader, dry powder, SA7 (AID 743145); assay type: functional
[5] = A2780 ovarian cancer cell cytotoxicity, dose response, cytotoxicity control, plate reader, dry powder samples (AID 743046); assay type: functional, cell-based
[6] = cytotoxicity in COV362 ovarian cancer cells, dose response, cytotoxicity control for PAX8 inhibitor project, cell-based, plate reader, dry powder, SA12 (AID 743144); assay type: functional
[7] = cytotoxicity in OVCAR4 cells, dose response, cytotoxicity control for PAX8 inhibitor project, cell-based, plate reader, dry powder, SA11 (AID 743150); assay type: functional; settings: OVCAR-4
[8] = cytotoxicity dependent on PAX8, dose response, cell-based, plate reader, dry powder (AID 743049); assay type: functional
[9] = cytotoxicity toward NIH3T3 fibroblasts, dose response, counter-screen, cell-based, ATP luminescence, mouse fibroblasts (AID 2010); assay type: functional;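 note: cells exposed to compound for about 90 hours before reading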
[10] = inhibitors of intracellular T. cruzi replication, confirmation, NIH3T3 host cells, beta-gal luminescence (AID 2044); assay type: functional, cell-based;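 note: intracellular parasites grown in NIH/3T3 mouse fibroblasts as host cells; luminescent beta-galactosidase reporter signal from transgenic T. cruzi replicating inside host cells; inhibitors lower the luminescence signal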
[11] = cytotoxicity in OV-90 ovarian cancer cells, dose response, PAX8 inhibitor project, cell-based, plate reader, dry powder, SA8 (AID 743149); assay type: functional
[12] = PAX5 activity inhibitors, dose response, selectivity assay for PAX8 inhibitor project, cell-based, plate reader, dry powder samples (AID 743047); assay type: functional;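 note: HEK293 cells carrying a Pax5 driven CD19 promoter luciferase reporter; potency of inhibitors that lower reporter luminescence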
[13] = PAX2 cell-based inhibition, dose response, selectivity assay for PAX8 inhibitor project, plate reader, dry powder samples (AID 743048); assay type: functional;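 note: HEK293 cells carrying a WT1 promoter luciferase reporter driven by expressed Pax2; potency is for inhibition of Pax2 driven reporter signal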
[14] = target: Paired box protein Pax-8 (Homo sapiens, UniProt Q06710); experiment: inhibitors of PAX8-driven TPO luciferase reporter, dose response, RMG-I cells, cherry-pick (AID 687027); assay type: functional, cell-based;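 note: luciferase reporter driven by Pax8 target thyroperoxidase promoter measured by SteadyGlo luminescence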
[15] = NIH:OVCAR-3 ovarian cancer cell cytotoxicity, dose response, PAX8 inhibitor project, plate reader, dry powder samples (AID 743044); assay type: functional, cell-based
[16] = IOSE-T80 ovarian epithelial cell cytotoxicity, dose response, cytotoxicity control for PAX8 inhibitor project, plate reader, dry powder samples (AID 743045); assay type: functional, cell-based
[17] = target: Kallikrein-7 (Homo sapiens, UniProt P49862); experiment: Fluorescence Intensity-based biochemical primary high throughput dose response assay to identify activators of kallikrein-7 (K7) zymogen.
[18] = target: Cytochrome P450 3A4 (Homo sapiens, UniProt P08684);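 note: CYP3A4 tested as one member of a cytochrome P450 panel screen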
[19] = inhibitors of Vif binding to APOBEC3G peptide, primary screen, biochemical, TR-FRET, GST-Vif 1-94, biotin-A3G peptide, dose response retest (AID 1117319); assay type: functional;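 note: TR-FRET signal of purified GST-Vif binding a biotinylated A3G peptide; inhibitors lower the FRET signal by blocking Vif and A3G binding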
[20] = target: Protein Tat (Human immunodeficiency virus type 1 group M subtype B (isolate HXB2)(HIV-1), UniProt P04608); assay type: functional;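 note: tat binding to TAR RNA read out by fluorescence polarization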
[21] = target: T1, Neuropeptide Y receptor type 1 (Homo sapiens, UniProt P25929); assay type: functional;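 note: HEK293 cells with a CNG channel challenged with NPY then isoproterenol; potency as antagonist that reverses NPY suppression of cAMP signal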
T1 sequence (P25929 whole entry): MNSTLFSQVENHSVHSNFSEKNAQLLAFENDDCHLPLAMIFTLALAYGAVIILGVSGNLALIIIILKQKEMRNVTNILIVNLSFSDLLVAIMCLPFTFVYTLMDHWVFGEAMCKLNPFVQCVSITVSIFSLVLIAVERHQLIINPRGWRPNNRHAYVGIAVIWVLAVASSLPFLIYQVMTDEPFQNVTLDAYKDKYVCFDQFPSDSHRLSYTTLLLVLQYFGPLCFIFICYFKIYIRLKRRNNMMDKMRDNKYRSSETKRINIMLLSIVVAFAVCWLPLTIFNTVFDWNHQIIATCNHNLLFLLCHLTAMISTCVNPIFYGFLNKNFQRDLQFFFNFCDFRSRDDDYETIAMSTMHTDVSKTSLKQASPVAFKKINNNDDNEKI

[22] = target: T2, Fibrinogen beta chain (Homo sapiens, UniProt P02675); experiment: Fluorescence polarization-based biochemical high throughput dose response assay to identify inhibitors that disrupt the binding of a cyclic peptide (Tn7) to the fibrin proteolytic product D-Dimer and fragment E complex [DD(E )].
[23] = target: T3, Fatty acid synthase (Homo sapiens, UniProt P49327); experiment: FAS thioesterase domain inhibitors, dose response, biochemical, kinetic fluorescence intensity (AID 624326); assay type: functional;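 note: rate of fluorescence rise from hydrolysis of a fluorogenic O-methyl fluorescein ester substrate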
[24] = target: T2, Fibrinogen beta chain; experiment: Fluorescence polarization-based biochemical high throughput dose response assay to identify inhibitors that disrupt the binding of a cyclic peptide (Tn6) to the fibrin proteolytic product D-Dimer and fragment E complex [DD(E )].
[25] = target: T4, Neuropeptide Y receptor type 2 (Homo sapiens, UniProt P49146); assay type: functional, cell-based;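 note: HEK293 cells expressing the receptor and a CNG channel; stimulus was NPY near EC95 followed by isoproterenol to raise cAMP; antagonist potency measured as restoring cAMP signal that NPY suppresses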
T4 sequence (P49146 whole entry): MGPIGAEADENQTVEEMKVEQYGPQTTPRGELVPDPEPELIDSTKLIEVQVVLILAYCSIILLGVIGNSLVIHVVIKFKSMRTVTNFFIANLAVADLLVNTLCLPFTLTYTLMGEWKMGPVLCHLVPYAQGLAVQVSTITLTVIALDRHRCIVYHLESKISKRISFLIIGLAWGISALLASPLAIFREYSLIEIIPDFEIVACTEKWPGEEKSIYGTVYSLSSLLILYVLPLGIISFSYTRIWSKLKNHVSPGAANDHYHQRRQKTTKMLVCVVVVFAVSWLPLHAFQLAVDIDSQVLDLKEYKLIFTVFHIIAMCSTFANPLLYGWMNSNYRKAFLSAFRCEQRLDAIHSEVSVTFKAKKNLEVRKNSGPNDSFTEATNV

[26] = target: T3, Fatty acid synthase; experiment: FAS thioesterase domain inhibitors, dose response, biochemical, endpoint fluorescence intensity, uHTS hits (AID 624327); assay type: functional;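 note: fluorescence from hydrolysis of an O-methyl fluorescein acyl ester substrate by the enzyme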
[27] = Jurkat T cell cytotoxicity, dose response, cytotoxicity control for P. falciparum gametocyte viability project, luminescence (AID 1117277); assay type: functional, cell-based;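 note: potency reflects loss of cellular ATP meaning fewer viable cells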
[28] = P. falciparum late gametocyte killing, dose response, luminescence (AID 1117278); assay type: functional, cell-based;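 note: gametocytes exposed to compound for 24 hours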
[29] = ADAM10 inhibitors, peptide cleavage, dose response, biochemical, QFRET (AID 743254);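 note: ADAM10 enzyme with the DM2 quenched FRET peptide as substrate; EDANS fluorescence gain as the protease cuts the substrate; inhibitor potency against ADAM10 proteolytic activity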
[30] = target: Disintegrin and metalloproteinase domain-containing protein 17 (Homo sapiens, UniProt P78536); experiment: ADAM17 protease inhibitors, dose response, counter-screen for ADAM10 exosite inhibitor project, biochemical, quenched FRET substrate (AID 743253)
[31] = target: ATP-dependent molecular chaperone HSP82 (Candida albicans (strain WO-1) (Yeast), UniProt C4YTQ8); experiment: loss of DOC-induced GRE-beta-galactosidase reporter signal, dose response, Hsp90 inhibitor project, S. cerevisiae, luminescence (AID 2400); assay type: functional, cell-based;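 note: beta-galactosidase luminescence from glucocorticoid response element reporter as proxy for Hsp90 function; inhibitor potency where signal loss means Hsp90 inhibition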
[32] = target: T5, Serine/threonine-protein phosphatase (Candida dubliniensis (strain CD36 / CBS 7987 / NCPF 3949 / NRRLY-17841) (Yeast), UniProt B9W6M3); experiment: calcineurin pathway inhibitors in yeast reporter, dose response, S. cerevisiae, CDRE-lacZ, luminescence, secondary (AID 2388); assay type: functional, cell-based;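 note: yeast reporter cells carrying a calcineurin-responsive lacZ construct stimulated with calcium chloride; luminescent beta-galactosidase reporter signal in whole cells rather than isolated phosphatase activity; potency for inhibition where a drop in reporter signal means calcineurin blockade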
T5 sequence (B9W6M3 whole entry): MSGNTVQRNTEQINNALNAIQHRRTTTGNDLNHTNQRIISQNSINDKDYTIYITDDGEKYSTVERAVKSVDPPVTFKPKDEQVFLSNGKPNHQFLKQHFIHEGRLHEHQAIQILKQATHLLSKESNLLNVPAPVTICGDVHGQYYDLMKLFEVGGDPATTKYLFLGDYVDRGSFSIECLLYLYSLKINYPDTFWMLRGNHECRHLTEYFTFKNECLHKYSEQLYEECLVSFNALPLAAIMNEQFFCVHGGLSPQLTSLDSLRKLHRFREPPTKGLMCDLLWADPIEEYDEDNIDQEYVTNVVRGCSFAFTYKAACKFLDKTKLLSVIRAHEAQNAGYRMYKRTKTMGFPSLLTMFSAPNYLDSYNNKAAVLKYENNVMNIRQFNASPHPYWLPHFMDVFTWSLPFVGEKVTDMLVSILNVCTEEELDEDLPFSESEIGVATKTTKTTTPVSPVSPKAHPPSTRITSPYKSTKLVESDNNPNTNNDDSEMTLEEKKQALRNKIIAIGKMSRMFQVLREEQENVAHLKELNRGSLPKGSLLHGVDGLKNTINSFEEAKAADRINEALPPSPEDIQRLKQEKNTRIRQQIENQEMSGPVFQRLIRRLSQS

[33] = NIH-3T3 fibroblast cytotoxicity, dose response, cytotoxicity control, cell-based, fluorescence, Alamar Blue, secondary assay (AID 2327); assay type: functional;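 note: NIH-3T3 mouse fibroblasts cultured with fluconazole at 8 µg/mL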
[34] = C. albicans growth with fluconazole, confirmation, fluorescence, retest (AID 2467); assay type: functional, cell-based
[35] = HEK293T cell cytotoxicity, dose response, cytotoxicity control, CellTiter-Glo luminescence, cherry-picked samples, set 4 (AID 743441); assay type: functional, cell-based; settings: HEK293
[36] = cytotoxicity in HepG2 cells, dose response, cytotoxicity control, cell-based, CellTiter-Glo luminescence, cherry-pick, set 4 (AID 743480); assay type: functional

T2 sequence (P02675 whole entry, the tested form may be a part): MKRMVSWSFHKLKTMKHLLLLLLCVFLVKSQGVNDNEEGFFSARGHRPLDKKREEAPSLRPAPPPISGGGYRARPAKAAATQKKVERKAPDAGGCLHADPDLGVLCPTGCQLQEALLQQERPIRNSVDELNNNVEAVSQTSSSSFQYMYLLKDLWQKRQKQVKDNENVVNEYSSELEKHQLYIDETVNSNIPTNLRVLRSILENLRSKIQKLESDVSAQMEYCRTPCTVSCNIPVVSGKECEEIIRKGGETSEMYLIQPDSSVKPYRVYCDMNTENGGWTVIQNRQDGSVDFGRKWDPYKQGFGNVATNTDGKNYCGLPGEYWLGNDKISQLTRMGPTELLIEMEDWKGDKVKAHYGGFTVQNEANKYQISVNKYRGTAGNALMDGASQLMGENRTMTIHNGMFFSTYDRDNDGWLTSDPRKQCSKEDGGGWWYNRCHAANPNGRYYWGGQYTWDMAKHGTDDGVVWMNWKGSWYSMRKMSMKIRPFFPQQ
T3 sequence (P49327 whole entry, the tested form may be a part): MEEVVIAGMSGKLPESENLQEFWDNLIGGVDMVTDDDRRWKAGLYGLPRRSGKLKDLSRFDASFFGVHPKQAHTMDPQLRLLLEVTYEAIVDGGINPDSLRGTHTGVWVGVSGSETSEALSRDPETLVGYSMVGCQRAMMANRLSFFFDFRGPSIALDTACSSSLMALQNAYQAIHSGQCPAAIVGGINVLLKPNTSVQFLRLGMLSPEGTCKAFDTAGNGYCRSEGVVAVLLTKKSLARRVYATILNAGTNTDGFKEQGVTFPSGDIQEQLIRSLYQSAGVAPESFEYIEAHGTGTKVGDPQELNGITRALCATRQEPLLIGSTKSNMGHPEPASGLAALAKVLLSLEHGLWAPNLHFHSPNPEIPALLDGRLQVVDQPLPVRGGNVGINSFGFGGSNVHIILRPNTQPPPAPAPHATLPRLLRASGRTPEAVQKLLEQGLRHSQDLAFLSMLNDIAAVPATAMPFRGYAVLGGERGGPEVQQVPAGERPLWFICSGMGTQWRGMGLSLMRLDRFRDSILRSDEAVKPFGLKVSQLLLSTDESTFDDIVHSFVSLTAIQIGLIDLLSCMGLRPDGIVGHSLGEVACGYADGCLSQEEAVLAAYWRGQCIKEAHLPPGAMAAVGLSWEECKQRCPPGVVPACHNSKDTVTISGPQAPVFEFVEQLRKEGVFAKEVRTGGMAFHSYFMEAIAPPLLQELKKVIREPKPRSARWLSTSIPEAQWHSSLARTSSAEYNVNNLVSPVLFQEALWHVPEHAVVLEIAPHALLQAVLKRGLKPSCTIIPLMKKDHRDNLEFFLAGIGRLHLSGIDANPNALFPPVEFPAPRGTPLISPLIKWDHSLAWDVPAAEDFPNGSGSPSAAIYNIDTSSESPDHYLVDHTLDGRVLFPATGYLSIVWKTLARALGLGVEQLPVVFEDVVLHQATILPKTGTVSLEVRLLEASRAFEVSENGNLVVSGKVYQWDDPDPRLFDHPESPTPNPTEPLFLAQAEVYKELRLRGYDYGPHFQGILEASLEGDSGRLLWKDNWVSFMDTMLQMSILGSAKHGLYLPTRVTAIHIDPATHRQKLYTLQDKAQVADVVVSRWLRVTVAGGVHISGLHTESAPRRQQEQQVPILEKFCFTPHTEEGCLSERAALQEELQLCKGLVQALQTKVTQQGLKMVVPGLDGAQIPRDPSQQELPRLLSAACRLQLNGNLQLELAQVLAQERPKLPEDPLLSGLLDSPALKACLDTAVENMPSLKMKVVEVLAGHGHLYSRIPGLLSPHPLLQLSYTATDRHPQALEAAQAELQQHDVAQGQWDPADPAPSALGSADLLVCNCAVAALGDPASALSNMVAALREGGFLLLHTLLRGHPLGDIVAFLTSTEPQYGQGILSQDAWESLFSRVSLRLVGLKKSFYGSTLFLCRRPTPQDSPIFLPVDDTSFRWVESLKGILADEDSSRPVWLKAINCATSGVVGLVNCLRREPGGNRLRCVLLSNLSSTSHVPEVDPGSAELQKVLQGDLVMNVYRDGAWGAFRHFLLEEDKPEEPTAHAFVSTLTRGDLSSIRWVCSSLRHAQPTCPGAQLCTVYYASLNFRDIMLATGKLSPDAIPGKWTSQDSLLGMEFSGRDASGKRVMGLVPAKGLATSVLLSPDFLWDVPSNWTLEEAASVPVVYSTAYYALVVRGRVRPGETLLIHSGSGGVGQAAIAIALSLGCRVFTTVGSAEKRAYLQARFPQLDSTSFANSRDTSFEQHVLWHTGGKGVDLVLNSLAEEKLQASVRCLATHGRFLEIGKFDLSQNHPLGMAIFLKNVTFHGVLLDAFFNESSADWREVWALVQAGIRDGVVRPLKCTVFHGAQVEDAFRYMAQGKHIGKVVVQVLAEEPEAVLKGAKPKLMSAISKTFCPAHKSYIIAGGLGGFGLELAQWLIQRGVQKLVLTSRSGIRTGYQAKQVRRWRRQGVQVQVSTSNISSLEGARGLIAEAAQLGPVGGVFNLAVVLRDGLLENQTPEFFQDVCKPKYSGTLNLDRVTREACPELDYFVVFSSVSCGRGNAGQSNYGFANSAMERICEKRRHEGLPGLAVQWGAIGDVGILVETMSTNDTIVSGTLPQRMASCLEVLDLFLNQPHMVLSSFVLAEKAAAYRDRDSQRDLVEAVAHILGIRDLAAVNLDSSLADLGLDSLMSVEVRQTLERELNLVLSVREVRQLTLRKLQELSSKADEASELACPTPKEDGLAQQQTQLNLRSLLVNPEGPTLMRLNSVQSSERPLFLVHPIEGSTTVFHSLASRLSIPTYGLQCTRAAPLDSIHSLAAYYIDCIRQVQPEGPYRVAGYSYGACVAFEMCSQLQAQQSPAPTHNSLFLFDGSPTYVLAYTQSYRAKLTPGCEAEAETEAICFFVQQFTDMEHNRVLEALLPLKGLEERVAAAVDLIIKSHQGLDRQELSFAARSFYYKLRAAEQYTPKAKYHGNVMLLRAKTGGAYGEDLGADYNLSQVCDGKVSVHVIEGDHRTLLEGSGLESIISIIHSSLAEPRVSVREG
Kallikrein-7, sequence (P49862 whole entry): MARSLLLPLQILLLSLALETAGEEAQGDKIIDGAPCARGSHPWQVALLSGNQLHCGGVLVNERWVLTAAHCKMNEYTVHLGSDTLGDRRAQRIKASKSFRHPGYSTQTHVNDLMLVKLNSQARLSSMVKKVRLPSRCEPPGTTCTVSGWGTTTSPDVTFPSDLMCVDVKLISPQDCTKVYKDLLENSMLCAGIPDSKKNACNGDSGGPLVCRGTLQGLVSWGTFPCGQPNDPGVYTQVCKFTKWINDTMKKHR
Protein Tat, sequence (P04608 whole entry): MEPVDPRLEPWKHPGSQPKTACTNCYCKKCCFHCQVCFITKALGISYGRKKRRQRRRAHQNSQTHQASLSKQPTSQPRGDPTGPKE
Disintegrin and metalloproteinase domain-containing protein 17, sequence (P78536 whole entry, the tested form may be a part): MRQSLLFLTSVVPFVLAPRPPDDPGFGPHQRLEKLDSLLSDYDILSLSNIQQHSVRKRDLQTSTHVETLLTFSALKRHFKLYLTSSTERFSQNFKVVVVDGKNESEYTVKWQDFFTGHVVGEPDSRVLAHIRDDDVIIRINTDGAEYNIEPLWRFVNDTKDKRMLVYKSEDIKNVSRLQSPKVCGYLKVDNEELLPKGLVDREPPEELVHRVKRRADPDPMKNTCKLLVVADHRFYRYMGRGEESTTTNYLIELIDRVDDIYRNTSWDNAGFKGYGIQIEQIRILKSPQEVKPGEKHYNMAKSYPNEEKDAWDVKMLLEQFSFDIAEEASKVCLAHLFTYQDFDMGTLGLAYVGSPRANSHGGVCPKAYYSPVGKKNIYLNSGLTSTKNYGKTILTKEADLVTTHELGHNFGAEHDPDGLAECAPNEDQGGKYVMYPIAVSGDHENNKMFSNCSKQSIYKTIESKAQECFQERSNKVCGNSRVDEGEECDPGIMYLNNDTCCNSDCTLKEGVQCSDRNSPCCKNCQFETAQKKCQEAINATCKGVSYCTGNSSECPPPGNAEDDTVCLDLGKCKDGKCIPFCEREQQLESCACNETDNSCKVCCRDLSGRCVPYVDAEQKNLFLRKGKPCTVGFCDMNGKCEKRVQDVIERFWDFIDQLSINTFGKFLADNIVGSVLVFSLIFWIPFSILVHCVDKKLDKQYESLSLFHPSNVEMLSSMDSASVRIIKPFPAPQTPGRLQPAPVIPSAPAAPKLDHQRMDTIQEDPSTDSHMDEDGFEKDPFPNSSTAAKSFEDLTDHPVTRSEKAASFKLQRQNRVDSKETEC
ATP-dependent molecular chaperone HSP82, sequence (C4YTQ8 whole entry): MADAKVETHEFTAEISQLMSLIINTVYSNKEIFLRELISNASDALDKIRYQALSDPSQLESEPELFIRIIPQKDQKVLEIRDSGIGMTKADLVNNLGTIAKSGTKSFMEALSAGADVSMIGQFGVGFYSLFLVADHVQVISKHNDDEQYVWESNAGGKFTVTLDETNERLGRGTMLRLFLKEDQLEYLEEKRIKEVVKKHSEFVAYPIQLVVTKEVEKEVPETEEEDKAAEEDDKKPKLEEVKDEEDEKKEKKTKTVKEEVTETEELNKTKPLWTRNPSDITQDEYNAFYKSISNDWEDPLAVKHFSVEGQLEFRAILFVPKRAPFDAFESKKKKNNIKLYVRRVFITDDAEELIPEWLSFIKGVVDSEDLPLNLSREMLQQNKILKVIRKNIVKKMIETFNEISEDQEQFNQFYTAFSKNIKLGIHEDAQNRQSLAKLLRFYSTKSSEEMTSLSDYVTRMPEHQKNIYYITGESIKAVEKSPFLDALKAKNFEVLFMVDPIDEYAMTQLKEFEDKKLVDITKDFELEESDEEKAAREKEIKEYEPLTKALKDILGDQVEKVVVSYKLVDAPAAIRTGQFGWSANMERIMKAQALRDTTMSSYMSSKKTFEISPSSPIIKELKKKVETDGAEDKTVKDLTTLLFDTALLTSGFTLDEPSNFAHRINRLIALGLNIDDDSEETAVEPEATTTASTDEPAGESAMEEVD

CC1CCCCN1Cc1c(O)ccc2c(=O)c(-c3nc4ccccc4s3)coc12 (stereo unspecified)
AC50 [1]: 47 µM (active)
AC50 [2]: 44.8 µM (active)
AC50 [3]: 40.4 µM (active)

COc1ccc2c(c1)C(C)=CC(C)(C)N2S(=O)(=O)c1ccc(Br)cc1
AC50 [4]: 4.64 µM (active)
AC50 [5]: 12 µM (active)
AC50 [6]: 15.3 µM (active)
AC50 [7]: 5.89 µM (active)
AC50 [8]: 16 µM (active)
EC50 [9]: 1.05 µM (active)
EC50 [10]: 2.06 µM (active)
AC50 [11]: 5.9 µM (active)
AC50 [12]: 75.6 µM (active)
AC50 [13]: 63 µM (active)
AC50 [14]: 7.63 µM (active)
AC50 [15]: 8.79 µM (active)
AC50 [16]: 8.49 µM (active)

CCN(CC)Cc1c(O)ccc2c(=O)c(Oc3ccccc3OC)coc12
EC50 [17]: 13.1 µM (inactive)
AC50 [18]: 25.1 µM (inconclusive)

CCOC(=O)c1cc(NC(=O)N2CCCc3ccccc32)c(C)nc1C
IC50 [19]: > 100 µM (active)
IC50 [20]: > 100 µM (active)

O=C(Nc1ccc(Cl)cc1)c1csc(-c2ccccc2)n1
IC50 [21]: 6.94 µM (active)
IC50 [22]: > 83.3 µM (inactive)
IC50 [23]: 13.5 µM (active)
IC50 [24]: > 83.3 µM (inactive)
IC50 [25]: 10.1 µM (not active)
IC50 [26]: 12.3 µM (active)

COCCNC(=O)c1ccc2c(c1)CCN2S(C)(=O)=O
IC50 [27]: > 83.3 µM (inactive)
IC50 [28]: > 109 µM (inactive)

Cc1cc(C)c(-c2cc(NC(=O)COC(=O)c3ccc(C#N)cc3)n(-c3ccccc3)n2)cc1C
IC50 [29]: > 69.5 µM (inactive)
IC50 [30]: > 69.5 µM (inactive)
EC50 [31]: > 160 µM (inactive)
EC50 [32]: > 180 µM (inactive)
EC50 [33]: > 150 µM (inactive)
EC50 [34]: 0.092 µM (active)

CCn1c(S)nnc1-c1cc(-c2ccc(OC(C)C)cc2)nc2ccccc12
AC50 [35]: > 52 µM (inactive)
AC50 [36]: > 52 µM (inactive)
